Source: patent publication US6864275B1, “Compounds and methods for use thereof in the treatment of cancer” (UAF Technologies and Research, LLC, priority 1997, dated 2005)

What was measured:
colon tumor cells (HT29) = assay: MTT cell growth inhibition, HT29 colon tumor cells; format: cell-based; conditions: 3-6 days incubation, read-out: IC50 Human Colon Carcinoma
Protocol: (§1) The following cell culture tests were performed to test the toxicity of benzimidazole derivative compounds of the present invention on colon and melanoma tumor cells. The viability of the cells were tested by looking at MTT (3-[4,5-dimethylthiazol-2-yl]-2,5-diphenyltetrazolium bromide) reduction. MTT assay is a well known measure of cell viability.
(§2) The colon tumor cells (HT29) and the melanoma cells (B16 murine melanoma) were seeded (1000-2000 cells) into each well of a 96-well microtiter plate and allowed to grow. Twenty-four hours later, increasing concentrations of each benzimidazole derivative were added to the plates and the cells were allowed to incubate for 3-6 days in the presence of the drugs. MTT reagent was then added to the wells and allowed to incubate for 4 hours at 37° C., after which the formazan metabolite was solubilized with acidic isopropanol and the absorbance was read. Experimental controls included blank wells to which no cells were added (zero point of formazan absorbance) and control wells to which no drug was added (highest level of formazan absorbance). Each drug concentration was tested in duplicate and the resulting average absorbance was plotted against drug concentration using the EZ-ED50 computer program on a personal computer interfaced to the microtiter plate reader. […] The IC50 value is then derived from this equation by EZ-ED50.

Tubulin = assay: Microtubule inhibition assay (tubulin polymerization, absorbance at 350 nm); format: biochemical, bovine; conditions: compound at 2 μM, after 30 minutes
Protocol: The benzimidazole derivatives of this invention were evaluated for their ability to inhibit formation of microtubules, following the procedure of Luduena, R. F. and M. C. […] Microtubule polymerization was followed by performing the reaction in a cuvette and monitoring UV absorbance at 350 nm, allowing direct visualization of the time course of the polymerization.

B16 murine melanoma = assay: MTT cell growth inhibition, B16 melanoma cells; format: cell-based; conditions: 3-6 days incubation
Protocol: as §1, §2

Row | Structure (SMILES) | IC50 (colon tumor cells (HT29)) [µM] | Tubulin Polymerization Inhibition, % Inhibition (Tubulin) | IC50 (B16 murine melanoma) [µM]
1 | COC(=O)Nc1nc2ccc(C(=O)OCCC(C)CC(C)(C)C)cc2[nH]1 (centres unmarked) [3-20] | 0.013 | 35% | < 0.001
2 | COC(=O)Nc1nc2ccc(C(=O)Nc3cc(OC)c(OC)c(OC)c3)cc2[nH]1 [2-15] | 4.2 | 5% | 6.1
3 | COC(=O)Nc1nc2ccc(C(=O)NCCCN(C)C)cc2[nH]1 [2-10] | 447 | 5% | 553
4 | CCC(C)CNC(=O)c1ccc2nc(NC(=O)OC)[nH]c2c1 (centres unmarked) [2-8] | 4.9 | none | 5
5 | COC(=O)Nc1nc2ccc(C(=O)NCC3CCCO3)cc2[nH]1 (centres unmarked) [2-4] | 35.7 | 36% | 47.2
6 | COC(=O)Nc1nc2c(OC(=O)CC(C)CC(C)(C)C)cccc2[nH]1 (centres unmarked) [Cpd. No. 1-1] | 15.8 | 38% | 20.1
7 | COC(=O)Nc1nc2ccc(C(=O)OC(C)C3CC3)cc2[nH]1 (centres unmarked) [3-16] | 0.03 | 44% | 0.062
8 | COC(=O)Nc1nc2ccc(C(=O)N(C)C3CCCCC3)cc2[nH]1 [Cpd. No. 2-16] | 0.23 | 39% | 0.32
9 | COC(=O)Nc1nc2ccc(C(=O)NC(C)CC(C)C)cc2[nH]1 (centres unmarked) [Cpd. No. 2-6] | 0.5 | 12% | 0.84
10 | C=CCOC(=O)c1ccc2nc(NC(=O)OC)[nH]c2c1 [3-3] | 0.059 | 42% | 0.22
11 | CCN(CC)CCCNC(=O)c1ccc2nc(NC(=O)OC)[nH]c2c1 [Cpd. No. 2-1] | 398 | 24% | 530
12 | COC(=O)Nc1nc2ccc(C(=O)OC(CCl)CCl)cc2[nH]1 [Cpd. No. 3-12] | 2.1 | 11% | 0.99
13 | COC(=O)Nc1nc2ccc(C(=O)OCCOCCCl)cc2[nH]1 [3-2] | 0.036 | 14% | 0.082
14 | COC(=O)Nc1nc2ccc(C(=O)NCCN(C)C)cc2[nH]1 [Cpd. No. 2-14] | 158 | none | 403
15 | COC(=O)Nc1nc2ccc(C(=O)OCCC(C)CCC=C(C)C)cc2[nH]1 (centres unmarked) [3-21] | 0.046 | 2% | 0.077
16 | CCCCN(C)C(=O)c1ccc2nc(NC(=O)OC)[nH]c2c1 [2-17] | 2.5 | none | 4.6
17 | COC(=O)Nc1nc2ccc(C(=O)NCCC(C)C)cc2[nH]1 [2-5] | 5.1 | 37% | 5.9
18 | CCOCCOCCOC(=O)c1ccc2nc(NC(=O)OC)[nH]c2c1 [Cpd. No. 3-4] | 0.027 | 12% | 0.084
19 | CCC(C)NC(=O)c1ccc2nc(NC(=O)OC)[nH]c2c1 (centres unmarked) [2-3] | 1.6 | 26% | 2.9
20 | COC(=O)Nc1nc2ccc(NC(=O)CC(C)CC(C)(C)C)cc2[nH]1 (centres unmarked) [Cpd. No. 5-1] | 7 | none | 6.6

Row | Structure (SMILES) | IC50 (colon tumor cells (HT29)) [µM] | Tubulin Polymerization Inhibition, % Inhibition (Tubulin) | IC50 (B16 murine melanoma) [µM]
21 | COC(=O)Nc1nc2c(OC(=O)c3cc(OC)c(OC)c(OC)c3)cccc2[nH]1 [Cpd. No. 1-2] | 26.3 | 35% | 14
22 | COCCNC(=O)c1ccc2nc(NC(=O)OC)[nH]c2c1 [2-11] | 17.1 | 19% | 30.5
23 | COC(=O)Nc1nc2ccc(C(=O)OCCCCCO)cc2[nH]1 [3-11] | 107 | 50% | 248
24 | COC(=O)Nc1nc2ccc(C(=O)NCCN3CCOCC3)cc2[nH]1 [2-2] | 121 | 11% | 80.5
25 | COC(=O)Nc1nc2ccc(C(=O)OCC(F)(F)C(F)(F)F)cc2[nH]1 [3-14] | 314 | 23% | 588
26 | COC(=O)Nc1nc2ccc(C(=O)OCC=CCO)cc2[nH]1 [3-10] | 0.6 | none | 1
27 | COC(=O)Nc1nc2ccc(C(=O)OCCOCCO)cc2[nH]1 [Cpd. No. 3-5] | – | 10% | 2.6
28 | COC(=O)Nc1nc2ccc(C(=O)OCCF)cc2[nH]1 [3-17] | 0.3 | 8% | 0.97
29 | COC(=O)Nc1nc2ccc(C(=O)OCCCCl)cc2[nH]1 [3-9] | 0.054 | none | 0.21
30 | COC(=O)Nc1nc2ccc(C(=O)NNc3ccccc3)cc2[nH]1 [Cpd. No. 2-12] | 25.4 | 50% | 271
31 | COC(=O)Nc1nc2ccc(OC(=O)c3cc(OC)c(OC)c(OC)c3)cc2[nH]1 [Cpd. No. 4-1] | 0.17 | 2% | 0.25
32 | COC(=O)Nc1nc2ccc(C(=O)OC(CF)CF)cc2[nH]1 [3-15] | 0.61 | 45% | 0.94
33 | COC(=O)Nc1nc2ccc(C(=O)OCc3ccccc3)cc2[nH]1 [3-7] | 0.033 | 26% | 0.085
34 | COC(=O)Nc1nc2ccc(C(=O)OCCN(C)C)cc2[nH]1 [Cpd. No. 3-8] | 48.6 | none | 70.4
35 | CCCN(CCC)C(=O)c1ccc2nc(NC(=O)OC)[nH]c2c1 [2-18] | 3.1 | 42% | 9.4
36 | COC(=O)Nc1nc2ccc(C(=O)Nc3ccccc3O)cc2[nH]1 [2-13] | 2.3 | 27% | 2.8
37 | COC(=O)Nc1nc2ccc(C(=O)OC(CBr)CBr)cc2[nH]1 [3-18] | 2.1 | none | 1.2
38 | COC(=O)Nc1nc2ccc(C(=O)NCCC(C)(C)C)cc2[nH]1 [2-7] | 0.42 | 43% | 0.41
39 | CCC(CC)NC(=O)c1ccc2nc(NC(=O)OC)[nH]c2c1 [2-9] | 228 | 16% | 0.37
